The values that follow come from PMC4393083, “Antiviral Activity and Possible Mechanism of Action of Constituents Identified in Paeonia lactiflora Root toward Human Rhinoviruses” (PLoS ONE, 2015).

Read-outs that look alike come from different tables or passages of the source.

By IC50 is commonly meant the point on the concentration scale where inhibition reaches its midpoint.

In one assay the test system is HRV-4. Kind of assay: Cytopathic effect inhibition assay (MTT), HRV-4 in HeLa cells. The assay is classed as cell-based, human rhinovirus. The settings on record: read-out: IC50 (95% CL) HRV-4. The protocol: Extraction procedures of air-dried root of P. lactiflora were performed as described previously by Ngan et al.. For isolation of active principles, viral CPE inhibition assay toward HRV-4 in HeLa cell was used. […]. Column fractions were monitored by TLC on silica gel plates developed with chloroform and methanol (7:3 by volume) mobile phase. Fractions with similar R f values on the TLC plates were pooled. Active fractions 4 to 5 (EI, 2.44 g) and 7 (EII, 0.569 g) were obtained. The active fraction EI was rechromatographed on a silica gel column by elution with chloroform and methanol (70:30 by volume) to give nine fractions (each about 450 mL). A preparative HPLC was used for separation of constituents from the active fractions 3 to 5 (0.176 g). The column was a 4.6 mm i.d. × 150 mm Eclipse XDB-C18 (Agilent, Santa Clara, CA) using a mobile phase of methanol and water (3:7 by volume) at a flow rate of 0.5 mL/min. Chromatographic separations were monitored using a UV detector at 260 nm. […]. The three antiviral principles were characterized as paeonol (PA) (1), gallic acid (GA) (2), and 1,2,3,4,6-penta-O-galloyl-β-D-glucopyranose (PGG) (3) (Fig 1) by spectroscopic analyses, including MS and NMR. PA (1): compound 1 was isolated as an antibacterial principle from P. lactiflora root in our previous work, and the spectral data of compound 1 was largely identical to the published data. GA (2) was identified on the basis of the following evidence: white powder. UV (MeOH): λmax nm = 260. FT-IR: v max cm^–1 = 3491–3063 (OH stretch), 1608 (aromatic C = C). […] The interpretations of proton and carbon signals of compound 2 were largely consistent with those of Sakar et al.. PGG (3): compound 3 was isolated as an antibacterial principle from P. lactiflora root in our previous work, and the spectral data of compound 3 was largely identical to the published data.
(§1) Monolayers of HeLa and MRC5 cells were seeded onto a 96-well culture plate as stated previously. Subsequently, 90 μL media containing several different concentrations (1–1000 μg/mL) of each test material in DMSO was put into the wells, and then 10 μL of 10×TCID50 of the virus stock was added to produce an appropriate CPE within 2 days after infection. Ribavirin served as a reference control and was similarly prepared. Negative controls consisted of the DMSO solution. Viral inhibition rate (VIR) (%) was calculated according to the formula [21], VIR = (A tV—A cV)/(A cd—A cV) × 100, where A tV is the optical density measured with a given concentration of the test compound in HRV infected cells; A cV is the optical density measured for the control untreated HRV infected cells; A cd is the optical density measured for the control untreated HRV uninfected cells.
(§2) The CC50 and IC50 values were determined using GraphPad Prism 5 software program (GraphPad Software, La Jolla, CA). […] The selectivity index (SI) was determined as the ratio of CC50 to IC50 [23]. All data represent the mean ± SD of duplicate or triplicate samples of three independent experiments. Statistical analyses were carried out using SAS 9.13 program (SAS Institute, Cary, NC). Data from two groups were analyzed by a Student’s t-test, and multiple groups were analyzed by a one-way analysis of variance and Bonferroni multiple comparison post-test.
In general terms: Protection from cytopathic effect is a common read-out in antiviral testing.

A further assay deals with ICAM-1. Kind of assay: ICAM-1 mRNA expression, qRT-PCR in MRC5. It counts as cell-based, human. The conditions noted are these: MRC5, 2 days after HRV-2 or HRV-4 infection; 100 μg/mL PA, 20 μg/mL PGG. On the procedure: (§3) To evaluate the level of gene expression, real-time qRT-PCR with SYBR Green dye was carried out. HRV-2 or HRV-4 infected and noninfected cultures of MRC5 monolayers grown in 25 cm^2 cell culture flasks (Corning, NY) were treated with 100 μg/mL PA or 20 μg/mL PGG. After incubation at 37°C and 5% CO2 for 2 days, total RNA was extracted from the culture cells using the RNeasy Plus Mini Kit (Qiagen, Hilden, Germany) according to the manufacturer’s instructions. Contaminated genomic DNA was removed using RQ1 RNase-free DNase (Promega, Madison, WI). […] The PCR conditions were as follows: 50°C for 2 min, 95°C for 10 min, and then 50 cycles of 95°C for 15 s and either 60°C [β2-microglobulin (B2M), interleukin (IL)-6, IL-8, LDLR, ICAM-1, HRV-2, and HRV-4] or 58°C (B2M and IL-1β) or 55°C [B2M, Toll-like receptor 3 (TLR3), tumor necrosis factor (TNF), and interferon beta (IFNβ)] for 30 s. mRNA expression level of target gene was normalized to mRNA expression level for the housekeeping gene B2M and analyzed by the 2^–ΔΔCT method using StepOne Software v2.1 and DataAssist Software (Applied Biosystems). […]
The expressions of ICAM-1 and LDLR were examined using real-time qRT-PCR and Western blot. […] The concentrations of ICAM-1 in the test samples were determined from OD values using standard curve of each assay.
For orientation: Real-time PCR tracks product formation cycle by cycle.

For assay [1], the system named is two HRVs (HRV-2 and HRV-4). Kind of assay: Cytopathic effect inhibition assay, summary over both serotypes. The assay is classed as cell-based, human rhinovirus. The conditions noted are these: Rhinovirus A; range over HRV-2 and HRV-4, HeLa and MRC5 cells; read-out: IC50 toward two HRVs (range). The protocol: as §1, §2
The subject of the next assay is IL-1β. Kind of assay: IL-1β mRNA expression, qRT-PCR in MRC5. The settings on record: MRC5, 2 days after HRV-2 or HRV-4 infection; 100 μg/mL PA, 20 μg/mL PGG. It counts as cell-based, human. On the procedure:
as §3, with “WI). Complementary DNA (cDNA) was synthesized using 1 μg total RNA through a reverse transcription reaction using the SuperScript First-Strand Synthesis Kit (Invitrogen, Carlsbad, CA).” for “WI).”

Where [2] appears, read: Human rhinovirus sp., HRV4, HeLa.

As for `COc1ccc(C(C)=O)c(O)c1` [PA, paeonol], the IC50 was 514 µM with HRV-4 (setting [2]), 514 µM with HRV-4 and 492 to 608 µM in assay [1]. For the same compound, in the assay with ICAM-1, the “effect on HRV-induced ICAM-1 mRNA expression” value is “reduced”. Further, the “effect on HRV-induced IL-1β mRNA expression” value with IL-1β is on record as “disappeared or was significantly reduced”.

As for `O=C(OC[C@H]1O[C@@H](OC(=O)c2cc(O)c(O)c(O)c2)[C@H](OC(=O)c2cc(O)c(O)c(O)c2)[C@@H](OC(=O)c2cc(O)c(O)c(O)c2)[C@@H]1OC(=O)c1cc(O)c(O)c(O)c1)c1cc(O)c(O)c(O)c1` [PGG, 1,2,3,4,6-penta-O-galloyl-β-D-glucopyranose], the IC50 in the assay with HRV-4 (setting [2]) is 14.4 µM; with HRV-4 it was 14.4 µM; in assay [1] it was 11.6 to 17.9 µM. Besides, in the assay with ICAM-1, the “effect on HRV-induced ICAM-1 mRNA expression” value is “reduced”. The “effect on HRV-induced IL-1β mRNA expression” value in the assay with IL-1β is “disappeared or was significantly reduced”.

Regarding `NC(=O)c1ncn([C@@H]2O[C@H](CO)[C@@H](O)[C@H]2O)n1` [Ribavirin, reference compound], the IC50 in the assay on HRV-4 (setting [2]) is 324 µM; in the assay with HRV-4 it was 324 µM; in assay [1] it was 240 to 324 µM.
